Measured values from patent publication US9938269B2, “Inhibitor compounds of phosphodiesterase type 10A” (ABBVIE INC., priority 2011, dated 2018).
Structures can show the parent of a compound that is named as a salt.

Experiments:
[1] = molecular target: T1, PDE10A (human) (Homo sapiens, UniProt Q9Y233); test: Measurement of PDE activity (HTRF cAMP kit), human PDE10A; assay type: biochemical; conditions: PDE enzymatic reaction, substrate 20 nM for PDE10, 60 minutes at 29 C
T1 construct: purchased BPS Bioscience
How it was run: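 Recombinant human PDE10A (10–250 pM range across PDEs) with 20 nM cAMP substrate in 20 mM Tris-HCl pH 7.5, 10 mM MgCl2, 0.1% BSA, compound pre-mixed with enzyme. Ran 60 min at 29 °C. Remaining cAMP read by HTRF, converted to % of uninhibited activity, and IC50 fitted.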

[2] = Determination of the microsomal half-life, human liver microsomes; conditions: human, liver microsomes, pH 7.4
[3] = Determination of the microsomal half-life, rat liver microsomes; conditions: rat, liver microsomes, pH 7.4
Method: The test substances were incubated in a concentration of 0.5 μM as follows:
0.5 μM test substance are preincubated together with liver microsomes from different species (from rat, human or other species) (0.25 mg of microsomal protein/10 in 0.05 M potassium phosphate buffer of pH 7.4 in microtiter plates at 37° C. for 5 min. The reaction is started by adding NADPH (1 mg/mL). After 0, 5, 10, 15, 20 and 30 min., 50 μl aliquots are removed, and the reaction is immediately stopped and cooled with the same volume of acetonitrile. The samples are frozen until analyzed. The remaining concentration of undegraded test substance is determined by MSMS. The half-life (T½) is determined from the gradient of the signal of test substance/unit time plot, it being possible to calculate the half-life of the test substance, assuming first order kinetics, from the decrease in the concentration of the compound with time. The microsomal clearance (mCl) is calculated from mCl=ln 2/T½/(content of microsomal protein in mg/ml)×1000 [ml/min/mg]

T1 sequence (Q9Y233 whole entry): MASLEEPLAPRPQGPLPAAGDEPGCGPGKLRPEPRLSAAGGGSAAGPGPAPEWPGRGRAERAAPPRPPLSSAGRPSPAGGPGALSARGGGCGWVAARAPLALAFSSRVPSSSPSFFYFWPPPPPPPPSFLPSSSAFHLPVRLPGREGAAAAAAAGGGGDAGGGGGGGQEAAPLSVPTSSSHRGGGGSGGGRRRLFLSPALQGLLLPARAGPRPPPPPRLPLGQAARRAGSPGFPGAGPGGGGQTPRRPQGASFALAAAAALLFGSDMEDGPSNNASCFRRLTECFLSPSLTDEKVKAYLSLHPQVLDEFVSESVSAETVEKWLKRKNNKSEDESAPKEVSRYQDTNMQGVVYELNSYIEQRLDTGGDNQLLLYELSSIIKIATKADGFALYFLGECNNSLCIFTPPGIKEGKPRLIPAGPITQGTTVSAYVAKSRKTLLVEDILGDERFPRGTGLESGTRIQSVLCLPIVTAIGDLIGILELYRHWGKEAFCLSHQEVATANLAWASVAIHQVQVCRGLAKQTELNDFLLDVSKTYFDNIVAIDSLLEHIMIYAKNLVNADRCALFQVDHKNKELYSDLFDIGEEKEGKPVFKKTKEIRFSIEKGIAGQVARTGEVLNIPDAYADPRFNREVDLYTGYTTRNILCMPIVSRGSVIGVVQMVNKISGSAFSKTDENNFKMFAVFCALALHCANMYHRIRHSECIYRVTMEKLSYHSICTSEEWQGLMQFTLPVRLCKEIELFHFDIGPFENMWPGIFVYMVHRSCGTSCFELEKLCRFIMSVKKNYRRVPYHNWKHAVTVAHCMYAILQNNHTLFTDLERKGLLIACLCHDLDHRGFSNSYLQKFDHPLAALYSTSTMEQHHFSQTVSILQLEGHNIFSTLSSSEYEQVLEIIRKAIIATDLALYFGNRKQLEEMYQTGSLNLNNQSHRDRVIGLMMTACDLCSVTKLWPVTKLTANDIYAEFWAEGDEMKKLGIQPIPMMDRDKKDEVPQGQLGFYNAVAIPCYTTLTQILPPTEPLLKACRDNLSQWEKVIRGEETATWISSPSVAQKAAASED

| Compound | IC50 [1] [nM] | microsomal CLint at 0.5 μM [2] [µL/min/mg] | microsomal CLint at 0.5 μM [3] [µL/min/mg] |
| --- | --- | --- | --- |
| O=C1c2c(cncc2-c2ccncc2)CN1CCc1ccc2ccccc2n1 [Example 2, 7-Pyridin-4-yl-2-(2-quinolin-2-yl-ethyl)-2,3-dihydro-pyrrolo[3,4-c]pyridin-1-one] | < 100 | 100 to 220 | 100 to 220 |
| O=C1c2c(-c3ccncc3)ccnc2CN1CCc1ccc2ccccc2n1 [Example 3, 4-Pyridin-4-yl-6-(2-quinolin-2-yl-ethyl)-6,7-dihydro-pyrrolo[3,4-b]pyridin-5-one] | < 100 | < 100 | 100 to 220 |
| O=C1c2c(-c3ccncc3)cccc2C(F)(F)N1CCc1ccc2ccccc2n1 [Example 4, 3,3-Difluoro-7-pyridin-4-yl-2-(2-quinolin-2-yl-ethyl)-2,3-dihydro-isoindol-1-one] | < 100 | 100 to 220 | > 220 |
| O=C1c2c(cccc2-c2ccc3[nH]cnc(=O)c3c2)CN1CCc1ccc2ccccc2n1 [Example 7, 6-[3-oxo-2-(2-quinolin-2-yl-ethyl)-2,3-dihydro-1H-isoindol-4-yl]-1H-quinazolin-4-one trifluoroacetate] | 200 to 500 | 100 to 220 | 100 to 220 |
| Cn1cnc2ccc(-c3cccc4c3C(=O)N(CCc3ccc5ccccc5n3)C4)cc21 [Example 8, 7-(3-Methyl-3H-benzoimidazol-5-yl)-2-(2-quinolin-2-yl-ethyl)-2,3-dihydro-isoindol-1-one trifluoroacetate] | 200 to 500 | > 220 | 100 to 220 |
| O=C1c2c(cccc2-c2ccc3[nH]c(=O)[nH]c3c2)CN1CCc1ccc2ccccc2n1 [Example 9, 5-[3-oxo-2-(2-quinolin-2-yl-ethyl)-2,3-dihydro-1H-isoindol-4-yl]-1,3-dihydro-benzoimidazol-2-one trifluoroacetate] | < 100 | < 100 | 100 to 220 |
| O=C1c2c(cccc2-c2ccc3nn[nH]c3c2)CN1CCc1ccc2ccccc2n1 [Example 10, 7-(3H-Benzotriazol-5-yl)-2-(2-quinolin-2-yl-ethyl)-2,3-dihydro-isoindol-1-one trifluoroacetate] | < 100 | 100 to 220 | < 100 |
| O=C1c2c(cccc2-c2ccc3nc[nH]c3c2)CN1CCc1ccc2ccccc2n1 [Example 11, 7-(3H-Benzoimidazol-5-yl)-2-(2-quinolin-2-yl-ethyl)-2,3-dihydro-isoindol-1-one trifluoroacetate] | < 100 | < 100 | < 100 |
| Nc1ncc2cc(-c3cccc4c3C(=O)N(CCc3ccc5ccccc5n3)C4)ccc2n1 [Example 12, 7-(2-Amino-quinazolin-6-yl)-2-(2-quinolin-2-yl-ethyl)-2,3-dihydro-isoindol-1-one] | < 100 | 100 to 220 | 100 to 220 |
| O=C1c2c(ccc(F)c2-c2ccncc2)CN1CCc1ccc2ccccc2n1 [Example 14, 6-Fluoro-7-pyridin-4-yl-2-(2-quinolin-2-yl-ethyl)-2,3-dihydro-isoindol-1-one] | < 100 | 100 to 220 | 100 to 220 |
| O=C1c2c(cc(F)cc2-c2ccncc2)CN1CCc1ccc2ccccc2n1 [Example 15, 5-Fluoro-7-pyridin-4-yl-2-(2-quinolin-2-yl-ethyl)-2,3-dihydro-isoindol-1-one] | < 100 | 100 to 220 | > 220 |
| O=C1c2c(cccc2-c2ccncc2)CN1CCc1ccc2sccc2n1 [Example 19, 7-Pyridin-4-yl-2-(2-thieno[3,2-b]pyridin-5-yl-ethyl)-2,3-dihydro-isoindol-1-one] | < 100 | > 220 | 100 to 220 |
| O=C1c2c(cccc2-c2ccncc2)CN1CCc1cn2ccccc2n1 [Example 20, 2-(2-Imidazo[1,2-a]pyridin-2-yl-ethyl)-7-pyridin-4-yl-2,3-dihydro-isoindol-1-one] | < 100 | < 100 | < 100 |
